Data from BigSolDB 2.1.

O=S(=O)([O-])Oc1ccc(C(c2ccc(OS(=O)(=O)[O-])cc2)c2ccccn2)cc1.[Na+].[Na+]
solubility (mole fraction)
Settings	in DMF	in DMSO	in acetic acid	in acetonitrile	in ethanol	in methanol	in n-butanol	in n-propanol	in water
298.15 K	0.0269	0.0049	0.0014	0.0001	0.0011	0.0096	0.0001	0.0002	0.0215
303.15 K	0.0321	0.0058	0.0019	0.0001	0.0015	0.0116	0.0002	0.0004	0.0252
308.15 K	0.0387	0.0069	0.0025	0.0003	0.0021	0.0142	0.0005	0.0007	0.0299
313.15 K	0.0463	0.0083	0.0034	0.0005	0.003	0.0178	0.0011	0.0014	0.0347
318.15 K	0.0561	0.0099	0.0046	0.001	0.0041	0.0213	0.0022	0.0028	0.0398
